From ChEMBL document CHEMBL1909046, “DrugMatrix in vitro pharmacology data”

Tests used:
[1] = biological target: T1, Calcitonin receptor (Homo sapiens, UniProt P30988); assay type: cell membranes, Membrane; settings: t47d; note: in other assays of this panel Not Active means under 50% inhibition at 10 µM
T1 sequence (P30988 whole entry): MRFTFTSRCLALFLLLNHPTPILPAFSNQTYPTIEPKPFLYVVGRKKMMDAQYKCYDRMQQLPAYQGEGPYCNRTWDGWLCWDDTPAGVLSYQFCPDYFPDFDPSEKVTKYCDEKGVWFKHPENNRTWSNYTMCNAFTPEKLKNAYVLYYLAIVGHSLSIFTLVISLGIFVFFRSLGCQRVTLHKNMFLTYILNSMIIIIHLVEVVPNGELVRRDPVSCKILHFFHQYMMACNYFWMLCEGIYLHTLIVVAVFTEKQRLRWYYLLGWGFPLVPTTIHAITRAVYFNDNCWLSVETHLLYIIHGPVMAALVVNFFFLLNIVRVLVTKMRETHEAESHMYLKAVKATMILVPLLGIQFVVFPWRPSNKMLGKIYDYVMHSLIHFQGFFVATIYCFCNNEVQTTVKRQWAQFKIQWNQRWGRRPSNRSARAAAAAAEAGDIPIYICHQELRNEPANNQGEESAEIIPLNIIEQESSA

[2] = biological target: T2, Estrogen receptor (Homo sapiens, UniProt P03372); settings: sf9; note: in other assays of this panel Not Active means under 50% inhibition at 10 µM
T2 sequence (P03372 whole entry): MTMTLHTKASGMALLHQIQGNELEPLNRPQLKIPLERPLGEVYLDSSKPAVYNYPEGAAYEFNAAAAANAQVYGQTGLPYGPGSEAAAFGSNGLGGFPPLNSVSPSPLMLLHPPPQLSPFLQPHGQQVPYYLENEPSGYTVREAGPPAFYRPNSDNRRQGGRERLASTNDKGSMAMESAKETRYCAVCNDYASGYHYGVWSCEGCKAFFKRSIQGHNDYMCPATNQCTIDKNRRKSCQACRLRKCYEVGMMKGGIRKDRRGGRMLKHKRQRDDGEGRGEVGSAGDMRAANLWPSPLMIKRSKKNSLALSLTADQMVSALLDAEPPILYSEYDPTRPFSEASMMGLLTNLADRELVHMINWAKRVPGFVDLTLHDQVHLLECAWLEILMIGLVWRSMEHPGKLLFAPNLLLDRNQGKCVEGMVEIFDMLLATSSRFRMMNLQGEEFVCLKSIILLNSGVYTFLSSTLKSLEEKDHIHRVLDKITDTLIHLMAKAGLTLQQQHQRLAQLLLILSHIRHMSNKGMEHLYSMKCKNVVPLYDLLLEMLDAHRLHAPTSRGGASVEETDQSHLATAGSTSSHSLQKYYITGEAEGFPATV

[3] = biological target: T3, Alpha-2A adrenergic receptor (Homo sapiens, UniProt P08913); assay type: cell membranes, Sf9, Membrane; settings: for Ki: read-out: Ki; for all read-outs here: in other assays of this panel Not Active means under 50% inhibition at 10 µM
T3 sequence (P08913 whole entry): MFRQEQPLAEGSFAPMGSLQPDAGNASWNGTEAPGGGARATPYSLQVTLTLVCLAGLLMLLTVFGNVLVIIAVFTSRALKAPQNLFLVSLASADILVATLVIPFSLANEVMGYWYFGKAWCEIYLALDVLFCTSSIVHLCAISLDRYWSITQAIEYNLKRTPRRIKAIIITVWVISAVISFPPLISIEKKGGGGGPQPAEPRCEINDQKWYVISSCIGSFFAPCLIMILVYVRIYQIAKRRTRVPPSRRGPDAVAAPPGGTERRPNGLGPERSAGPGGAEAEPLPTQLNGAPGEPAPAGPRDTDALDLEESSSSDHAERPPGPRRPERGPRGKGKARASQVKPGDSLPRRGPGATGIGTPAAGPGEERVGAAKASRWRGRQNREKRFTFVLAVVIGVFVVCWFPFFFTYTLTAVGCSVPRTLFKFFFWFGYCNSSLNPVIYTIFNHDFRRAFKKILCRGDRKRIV

[4] = biological target: T4, 5-hydroxytryptamine receptor 2C (Homo sapiens, UniProt P28335); assay: DRUGMATRIX: Serotonin (5-Hydroxytryptamine) 5-HT2C radioligand binding (ligand: [3H] Mesulergine); assay type: cell membranes, CHO-K1, Membrane; settings: Not Active = under 50% inhibition at 10 µM; for Ki: read-out: Ki
T4 sequence (P28335 whole entry): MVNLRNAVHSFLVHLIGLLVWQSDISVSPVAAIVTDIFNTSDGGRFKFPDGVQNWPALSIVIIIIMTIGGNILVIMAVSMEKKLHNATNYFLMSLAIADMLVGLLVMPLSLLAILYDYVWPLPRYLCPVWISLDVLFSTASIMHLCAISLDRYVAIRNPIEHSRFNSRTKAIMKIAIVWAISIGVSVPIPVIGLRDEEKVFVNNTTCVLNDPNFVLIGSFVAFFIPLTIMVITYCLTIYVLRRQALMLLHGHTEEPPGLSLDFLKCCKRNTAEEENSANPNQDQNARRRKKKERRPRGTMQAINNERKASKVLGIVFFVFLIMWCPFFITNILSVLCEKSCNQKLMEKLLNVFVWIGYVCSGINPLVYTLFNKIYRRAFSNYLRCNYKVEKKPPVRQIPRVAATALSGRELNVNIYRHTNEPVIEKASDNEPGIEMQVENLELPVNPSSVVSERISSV

[5] = biological target: Histamine H2 receptor (Homo sapiens, UniProt P25021); assay type: cell membranes, CHO-K1, Membrane; settings: cho-k1; note: in other assays of this panel Not Active means under 50% inhibition at 10 µM
[6] = biological target: T5, Glucocorticoid receptor (Homo sapiens, UniProt P04150); settings: hela s3; note: in other assays of this panel Not Active means under 50% inhibition at 10 µM
T5 sequence (P04150 whole entry): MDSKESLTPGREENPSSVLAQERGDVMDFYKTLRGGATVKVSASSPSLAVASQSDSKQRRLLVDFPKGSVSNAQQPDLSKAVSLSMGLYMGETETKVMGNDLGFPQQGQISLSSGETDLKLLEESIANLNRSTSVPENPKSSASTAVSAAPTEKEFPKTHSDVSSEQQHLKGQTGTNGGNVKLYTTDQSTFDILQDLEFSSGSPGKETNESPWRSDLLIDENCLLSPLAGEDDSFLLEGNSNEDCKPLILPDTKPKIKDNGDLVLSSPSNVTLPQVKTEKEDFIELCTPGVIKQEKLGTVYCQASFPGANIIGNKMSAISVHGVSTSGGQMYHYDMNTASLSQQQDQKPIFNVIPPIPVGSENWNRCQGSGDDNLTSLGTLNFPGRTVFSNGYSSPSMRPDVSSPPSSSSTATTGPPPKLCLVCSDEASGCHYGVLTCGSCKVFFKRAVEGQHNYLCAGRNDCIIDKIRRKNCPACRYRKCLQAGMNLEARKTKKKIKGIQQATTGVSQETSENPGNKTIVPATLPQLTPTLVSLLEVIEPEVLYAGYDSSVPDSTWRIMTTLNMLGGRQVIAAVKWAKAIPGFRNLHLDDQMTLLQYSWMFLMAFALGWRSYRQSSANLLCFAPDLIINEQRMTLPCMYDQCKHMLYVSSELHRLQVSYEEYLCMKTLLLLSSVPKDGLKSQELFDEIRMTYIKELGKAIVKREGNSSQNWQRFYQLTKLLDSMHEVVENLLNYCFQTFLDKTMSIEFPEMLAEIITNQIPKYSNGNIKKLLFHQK

[7] = DRUGMATRIX: ATPase, Na+/K+ enzyme inhibition (substrate: ATP); assay type: tissue-based, Sus scrofa, Heart; settings: Not Active = under 50% inhibition at 10 µM

Chain of Histamine H2 receptor (P25021 whole entry): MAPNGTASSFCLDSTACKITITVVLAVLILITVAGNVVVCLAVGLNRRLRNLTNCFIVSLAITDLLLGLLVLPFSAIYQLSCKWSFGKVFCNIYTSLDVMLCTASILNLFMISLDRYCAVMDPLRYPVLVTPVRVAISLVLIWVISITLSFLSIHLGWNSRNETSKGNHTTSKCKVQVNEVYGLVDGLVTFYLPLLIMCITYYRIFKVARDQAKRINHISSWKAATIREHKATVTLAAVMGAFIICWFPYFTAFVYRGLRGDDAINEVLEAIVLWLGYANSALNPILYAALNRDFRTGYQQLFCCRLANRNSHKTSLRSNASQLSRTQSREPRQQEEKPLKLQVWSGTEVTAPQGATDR

| SMILES | IC50 [1] | IC50 [2] | IC50 ([3]; sf9) | IC50 ([4]; cho-k1) | IC50 [5] | IC50 [6] | IC50 [7] | Ki [7] | IC50 ([3]; read-out: IC50) | Ki [3] | IC50 ([4]; read-out: IC50) | Ki [4] |
| --- | --- | --- | --- | --- | --- | --- | --- | --- | --- | --- | --- | --- |
| Oc1ncnc2[nH]ncc12 [ALLOPURINOL] | Not Active | Not Active | Not Active | Not Active | Not Active | Not Active | Not Active | Not Active |  |  |  |  |
| Clc1cc(Cl)c(OCC#CI)cc1Cl [HALOPROGIN] | Not Active | Not Active |  |  | Not Active | Not Active | Not Active | Not Active | 1220 nM | 458 nM | 2600 nM | 1360 nM |
| O=c1[nH]cnc2c1ncn2[C@H]1CC[C@@H](CO)O1 [DIDANOSINE] | Not Active | Not Active | Not Active | Not Active | Not Active | Not Active | Not Active | Not Active |  |  |  |  |
| COc1cc(/C=C/C(=O)O)ccc1O [FERULATE] | Not Active | Not Active | Not Active | Not Active | Not Active | Not Active | Not Active | Not Active |  |  |  |  |
| O=C(O)CCc1nc(-c2ccccc2)c(-c2ccccc2)o1 [OXAPROZIN] | Not Active | Not Active | Not Active | Not Active | Not Active | Not Active | Not Active | Not Active |  |  |  |  |
| c1ccc(Cn2ccnc2)cc1 | Not Active | Not Active | Not Active | Not Active | Not Active | Not Active | Not Active | Not Active |  |  |  |  |
| Nc1nc(N)c2nc(CNc3ccc(C(=O)N[C@@H](CCC(=O)O)C(=O)O)cc3)cnc2n1 [AMINOPTERIN] | Not Active | Not Active | Not Active | Not Active | Not Active | Not Active | Not Active | Not Active |  |  |  |  |
| CC(=O)Nc1ccc2c(c1)Cc1ccccc1-2 [2-ACETYLAMINOFLUORENE] | Not Active | Not Active |  |  | Not Active | Not Active | Not Active | Not Active | 21100 nM | 7900 nM | 2140 nM | 1120 nM |
| C=C(Cl)Cl [1,1-DICHLOROETHENE] | Not Active | Not Active | Not Active | Not Active | Not Active | Not Active | Not Active | Not Active |  |  |  |  |
| C[C@H](C(=O)O)c1ccc2oc(-c3ccc(F)cc3)nc2c1 [FLUNOXAPROFEN] | Not Active | Not Active | Not Active | Not Active | Not Active | Not Active | Not Active | Not Active |  |  |  |  |
| CC1(COc2ccc(CC3SC(=O)NC3=O)cc2)CCCCC1 (centres undefined) [CIGLITAZONE] | Not Active | Not Active |  | Not Active | Not Active | Not Active | Not Active | Not Active | 16600 nM | 6210 nM |  |  |
| C=CCN1CC[C@]23c4c5ccc(O)c4O[C@H]2/C(=N/N=C2\CC[C@@]4(O)[C@H]6Cc7ccc(O)c8c7[C@@]4(CCN6CC=C)[C@H]2O8)CC[C@@]3(O)[C@H]1C5 [NALOXONAZINE] | Not Active | Not Active | Not Active | Not Active | Not Active | Not Active | Not Active | Not Active |  |  |  |  |
| C[N+](C)(C)CCOP(=O)([O-])OC[C@H](O)CO | Not Active | Not Active | Not Active | Not Active | Not Active | Not Active | Not Active | Not Active |  |  |  |  |
